Experiments:
[1] = biological target: T1, Vasopressin V2 receptor (Homo sapiens, UniProt P30518); test: Compound was assessed for their ability to displace [3H]AVP from human V2 receptors transfected into HEK293 cells at 0.1 uM concentration; format: cell-based
[2] = biological target: T1, Vasopressin V2 receptor; test: Displacement of [3H]AVP from human V2 receptors expressed in HEK293 cells; format: cell-based
[3] = biological target: T1, Vasopressin V2 receptor; test: Inhibitory activity of the human V2 receptor was assessed by the accumulation of cAMP in transfected HEK293 cells.; format: functional, cell-based
[4] = biological target: Vasopressin V2 receptor (Rattus norvegicus, UniProt Q00788); test: Binding affinity towards V2 receptor
[5] = biological target: Vasopressin V1a receptor (Homo sapiens, UniProt P37288); test: Binding affinity towards VIa receptor
Vasopressin V1a receptor, sequence (P37288 whole entry): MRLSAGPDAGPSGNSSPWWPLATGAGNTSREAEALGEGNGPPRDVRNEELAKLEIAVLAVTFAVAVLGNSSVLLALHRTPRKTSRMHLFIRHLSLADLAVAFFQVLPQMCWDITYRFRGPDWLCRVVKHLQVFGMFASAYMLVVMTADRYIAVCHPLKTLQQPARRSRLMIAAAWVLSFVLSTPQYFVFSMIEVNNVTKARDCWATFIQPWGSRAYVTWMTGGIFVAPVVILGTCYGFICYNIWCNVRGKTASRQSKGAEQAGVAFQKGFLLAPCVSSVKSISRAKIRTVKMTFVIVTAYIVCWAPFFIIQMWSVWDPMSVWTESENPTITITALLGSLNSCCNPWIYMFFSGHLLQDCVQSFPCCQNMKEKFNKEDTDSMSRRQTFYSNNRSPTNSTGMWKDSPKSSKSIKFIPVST

T1 sequence (P30518 whole entry): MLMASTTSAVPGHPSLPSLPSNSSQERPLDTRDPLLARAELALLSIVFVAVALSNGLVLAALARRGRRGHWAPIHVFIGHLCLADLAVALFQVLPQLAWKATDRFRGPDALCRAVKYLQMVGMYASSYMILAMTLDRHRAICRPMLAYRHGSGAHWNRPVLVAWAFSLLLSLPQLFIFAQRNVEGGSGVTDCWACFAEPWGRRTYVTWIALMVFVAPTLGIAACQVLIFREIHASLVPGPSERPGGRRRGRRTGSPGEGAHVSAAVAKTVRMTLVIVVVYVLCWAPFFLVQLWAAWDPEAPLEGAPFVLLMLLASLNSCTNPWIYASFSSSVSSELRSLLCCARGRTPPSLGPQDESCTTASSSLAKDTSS
Vasopressin V2 receptor (Rattus norvegicus, UniProt Q00788), sequence (Q00788 whole entry): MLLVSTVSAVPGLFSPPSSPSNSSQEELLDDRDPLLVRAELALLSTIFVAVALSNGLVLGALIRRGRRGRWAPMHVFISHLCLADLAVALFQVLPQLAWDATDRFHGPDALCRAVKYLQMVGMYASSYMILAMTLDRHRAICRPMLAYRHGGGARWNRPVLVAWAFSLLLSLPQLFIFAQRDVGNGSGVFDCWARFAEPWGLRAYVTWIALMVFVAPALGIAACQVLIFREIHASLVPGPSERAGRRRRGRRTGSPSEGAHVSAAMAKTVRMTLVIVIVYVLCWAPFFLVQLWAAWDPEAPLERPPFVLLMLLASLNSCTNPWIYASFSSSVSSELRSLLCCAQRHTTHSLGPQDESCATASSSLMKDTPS

Compound | IC50 [2] [nM] | other results
Cc1ccc(-c2ccccc2C(=O)Nc2ccc(C(=O)N3CCCc4cn(Cc5ccccc5)c5cccc3c45)cc2)cc1 | – | inhibition [1]: < 30%
Cc1ccc(F)cc1C(=O)Nc1ccc(C(=O)N2CCCc3c[nH]c4cccc2c34)cc1 | 190 | –
O=C(Nc1ccc(C(=O)N2CCCc3c[nH]c4cccc2c34)cc1)c1ccccc1-c1ccccc1 | 20 | IC50 [3]: 70 nM; IC50 [4]: 1 nM; IC50 [5]: 3100 nM
Cc1ccc(-c2ccccc2C(=O)Nc2ccc(C(=O)N3CCCc4cn(C)c5cccc3c45)cc2)cc1 | 210 | –
O=C(Nc1ccc(C(=O)N2CCCc3c(S(=O)(=O)O)[nH]c4cccc2c34)cc1)c1ccccc1-c1ccccc1 | 13 | –
Cc1ccccc1C(=O)Nc1ccc(C(=O)N2CCCc3c[nH]c4cccc2c34)cc1 | – | inhibition [1]: < 30%
CCCn1cc2c3c(cccc31)N(C(=O)c1ccc(NC(=O)c3ccccc3-c3ccc(C)cc3)cc1)CCC2 | – | inhibition [1]: < 30%
Cc1ccc(F)cc1C(=O)Nc1ccc(C(=O)N2Cc3cccn3Cc3ccccc32)c(Cl)c1 [LIXIVAPTAN] | – | IC50 [3]: 91 nM
O=C(Nc1ccc(C(=O)N2CCCc3c(Cl)[nH]c4cccc2c34)cc1)c1ccccc1-c1ccccc1 | 44 | –
Cc1ccc(-c2ccccc2C(=O)Nc2ccc(C(=O)N3CCCc4c[nH]c5cccc3c45)cc2)cc1 | 11 | IC50 [3]: 70 nM
O=C(Nc1ccc(C(=O)N2CCCc3c(S(=O)(=O)O)[nH]c4cccc2c34)cc1Cl)c1ccccc1-c1ccccc1 | 12 | –

Now from value to molecule, other results behind:

IC50 [2] [nM] | Compound | other results
15 | O=C(Nc1ccc(C(=O)N2CCCc3c[nH]c4cccc2c34)cc1Cl)c1ccccc1-c1ccccc1 | –
50 | O=C(Nc1ccc(C(=O)N2CCCc3c[nH]c4cccc2c34)c(Cl)c1)c1ccccc1-c1ccccc1 | IC50 [3]: 330 nM
550 | CCOC(=O)Cn1cc2c3c(cccc31)N(C(=O)c1ccc(NC(=O)c3ccccc3-c3ccc(C)cc3)cc1)CCC2 | –
180 | Cc1c(F)cccc1C(=O)Nc1ccc(C(=O)N2CCCc3c[nH]c4cccc2c34)cc1 | –
170 | CC(=O)n1cc2c3c(cccc31)N(C(=O)c1ccc(NC(=O)c3ccccc3-c3ccc(C)cc3)cc1)CCC2 | –
8 | O=C(Nc1ccc(C(=O)N2CCCC3C(=O)Nc4cccc2c43)cc1)c1ccccc1-c1ccccc1 (configuration not stated) | –

Source: ChEMBL document CHEMBL1136603, “Synthesis and biological evaluation of novel indoloazepine derivatives as non-peptide vasopressin V2 receptor antagonists” (Bioorg Med Chem Lett, 2003)
